Data from ChEMBL document CHEMBL1129412, “Computation of brain-blood partitioning of organic solutes via free energy calculations” (J Med Chem, 1996).

Assays:
[1] = logBB, log(C brain/C blood)
[2] = logBB, log(C brain / C blood)
[3] = The ratio of brain-blood partitioning, (C brain / C blood).; type: ADME, tissue-based

N=C(N)Nc1nc(-c2cccc(N)c2)cs1
Kp ([1]; brain / blood): 0.0708

O=[N+]([O-])c1c(Cc2ccccc2)c[nH]c1NCCSCc1ccccn1
Kp ([1]; brain / blood): 0.759

CCCCC [PENTANE]
Kp ([2]; brain / blood): 5.75

COc1ccc(CN(CCN(C)C)c2ccccn2)cc1 [PYRILAMINE]
Kp ([1]; blood): 3.09

CCCC(C)C
Kp ([2]; brain / blood): 9.33

Cc1csc(N=C(N)N)n1
Kp ([1]; blood): 0.912

CN(C)Cc1ccc(CSCCNc2ncc(Cc3ccc4ccccc4c3)c(O)n2)o1
Kp ([1]; brain / blood): 0.0501

CC(C)c1nc(-c2ncn3c2CN(C)C(=O)c2c(Cl)cccc2-3)no1
Kp ([2]; brain / blood): 0.501 | Kp [3]: 0.5

CN(C)Cc1ccc(-c2cccc(Nc3[nH]ccc3[N+](=O)[O-])c2)o1
Kp ([2]; brain / blood): 0.537

CN(C)CCCN1c2ccccc2CCc2ccccc21 [IMIPRAMINE]
Kp ([1]; blood): 6.76

NC(N)=Nc1nc(-c2ccccc2)cs1
Kp ([1]; brain / blood): 0.661

CN/C(=N/CCSCc1nc[nH]c1C)NC#N [CIMETIDINE]
Kp ([1]; blood): 0.038

N#N [NITROGEN]
Kp ([2]; brain / blood): 1.07

NC(=O)N1c2ccccc2C2OC2c2ccccc21 (stereo not drawn) [CARBAMAZEPINE EPOXIDE]
Kp ([2]; brain / blood): 0.457 | Kp [3]: 0.46

CCO [ALCOHOL]
Kp ([2]; blood): 0.692

O=[N+]([O-])c1cc[nH]c1NCCSCc1ncccc1Br
Kp ([1]; brain / blood): 0.214

Cc1ccc(Cc2c[nH]c(NCCSCc3ccc(CN(C)C)o3)nc2=O)cn1 [LUPITIDINE]
Kp ([1]; brain / blood): 0.0871

CN(C)CCC=C1c2ccccc2CCc2ccccc21 [AMITRIPTYLINE]
Kp [3]: 9.6

CCC(C)CC
Kp ([2]; blood): 10.2

CC/N=C(\NC#N)NCCSCc1ncccc1Br
Kp ([1]; blood): 0.00708

FC(F)OC(F)(F)C(F)Cl (stereo not drawn)
Kp ([2]; blood): 1.74

O=C(NCCCOc1cccc(CN2CCCCC2)c1)c1ccccc1
Kp ([1]; blood): 0.575

c1cc(CN2CCCCC2)cc(OCCCNc2nccs2)c1
Kp ([1]; blood): 2.75

ClC=C(Cl)Cl [TRICHLOROETHYLENE]
Kp ([2]; blood): 2.19

CC(Cl)(Cl)Cl [TRICHLOROETHANE]
Kp ([2]; blood): 2.51

C=COCC(F)(F)F [FLUROXENE]
Kp ([2]; blood): 1.35

FC(F)(F)CCl
Kp ([2]; brain / blood): 1.2

CN(C)Cc1ccc(CSCCNc2[nH]cc(Cc3ccccc3)c2[N+](=O)[O-])o1
Kp ([1]; blood): 0.186

c1ccc(NCCCOc2cccc(CN3CCCCC3)c2)nc1
Kp ([1]; blood): 4.9

COc1cccnc1CCCCNc1ncc(Cc2ccc(C)nc2)c(=O)[nH]1 [ICOTIDINE]
Kp ([1]; blood): 0.01

c1ccccc1 [BENZENE]
Kp ([2]; blood): 2.34

C [METHANE]
Kp ([2]; brain / blood): 1.1

CCC(C)=O [BUTANONE]
Kp ([2]; blood): 0.832

CC(=O)Nc1cccc(-c2csc(N=C(N)N)n2)c1
Kp ([1]; blood): 0.0269

C/N=C(\NC#N)Nc1cccc(-c2csc(N=C(N)N)n2)c1
Kp ([1]; brain / blood): 0.0288

CC(=O)NCCCOc1cccc(CN2CCCCC2)c1
Kp ([1]; blood): 0.347

CCCC(C)CC (stereo not drawn)
Kp ([2]; blood): 7.94

CN(C)c1cc(-c2n[nH]c(N)n2)ccn1
Kp ([1]; brain / blood): 0.0676

CN(C)Cc1ccnc(-c2cccc(Nc3[nH]ccc3[N+](=O)[O-])c2)c1
Kp ([1]; blood): 0.525

CN1Cc2c(-c3noc(C(C)(C)O)n3)ncn2-c2cccc(Cl)c2C1=O
Kp ([2]; brain / blood): 0.0457 | Kp [3]: 0.046

CN1Cc2c(-c3noc(C(C)(O)CO)n3)ncn2-c2cccc(Cl)c2C1=O (stereo not drawn)
Kp ([2]; blood): 0.0151 | Kp [3]: 0.015

FC(F)(F)C(Cl)Br (stereo not drawn) [HALOTHANE]
Kp ([2]; blood): 2.24

NC(=O)N1c2ccccc2C=Cc2ccccc21 [CARBAMAZEPINE]
Kp ([2]; blood): 1 | Kp [3]: 1

FC(F)OC(Cl)C(F)(F)F (stereo not drawn) [ISOFLURANE]
Kp ([2]; blood): 2.63

CCCCCC [HEXANE]
Kp ([2]; blood): 6.31

CC1CCCC1 [METHYLCYCLOPENTANE]
Kp ([2]; blood): 8.51

CC(C)O [ISOPROPYL ALCOHOL]
Kp ([2]; blood): 0.708

CCC(C)(C)C
Kp ([2]; brain / blood): 11

FC(Br)C(F)(F)F (stereo not drawn)
Kp ([2]; blood): 1.86

CCCCCCC [HEPTANE]
Kp ([2]; blood): 6.46

Cc1ccccc1 [TOLUENE]
Kp ([2]; blood): 2.34

CC(C)CO [ISOBUTANOL]
Kp ([2]; brain / blood): 0.676

CN(C)Cc1ccc(CSCCNc2[nH]ccc2[N+](=O)[O-])o1
Kp ([1]; brain / blood): 0.0759
